Laboratory results published in patent US20040176349A1, “Antibacterial composition” (priority 2001, published 2004).
Read-outs that look alike come from different tables or passages of the source.

Experiments:
E. faecalis ATCC 10541 = experiment: Checkerboard microdilution MIC with PFOB, Table 2; assay type: cell-based; conditions: E. faecalis ATCC 10541; for Synergy FIC: FIC index of PFOB + labelled partner, <0.5 = synergy; for MIC of partner antibiotic in the presence of PFOB at 0.5 mg/L: PFOB 0.5 mg/L; for MIC of partner antibiotic in the presence of PFOB at 1 mg/L: PFOB 1 mg/L; for MIC of partner antibiotic in the presence of PFOB at 2 mg/L: PFOB 2 mg/L; for MIC of partner antibiotic in the presence of PFOB at 16 mg/L: PFOB 16 mg/L; for MIC of partner antibiotic in the presence of PFOB at 32 mg/L: PFOB 32 mg/L; for MIC: Enterococcus faecalis, ATCC10541; for MIC of partner antibiotic in the presence of PFOB at 4 mg/L: PFOB 4 mg/L; for MIC of partner antibiotic in the presence of PFOB at 8 mg/L: PFOB 8 mg/L
Text: The aim of the study was to detect any synergy between PFOB and the other antibiotics. For the purposes of the study, synergy was defined in accordance with the FIC (fractional inhibitory concentration) index, as disclosed by Lorian (1991, In “Antibiotics in Laboratory Medicine” 3rd edition, Eds. Williams & Wilkins; esp. p 434-443).

enterococci = experiment: Checkerboard study, synergy summary of Example 2; assay type: cell-based, Enterococcus; conditions: in words
Text: (§1) The aim of the study was to detect any synergy between PFOB and the other antibiotics. For the purposes of the study, synergy was defined in accordance with the FIC (fractional inhibitory concentration) index, as disclosed by Lorian (1991, In “Antibiotics in Laboratory Medicine” 3rd edition, Eds. Williams & Wilkins; esp. p 434-443). In essence, if the combination of test compounds gives at least a 4-fold reduction in the FIC value for each compound, then a synergy may be considered to exist (i.e. FIC of the combination <0.5=synergy; FIC 0.5-2.0=“indifference”; and FIC >2=antagonism).

E. faecalis ATCC 29212 = experiment: Checkerboard microdilution MIC with PFOB, Table 2; assay type: cell-based; conditions: E. faecalis ATCC 29212; for MIC of partner antibiotic in the presence of PFOB at 0.5 mg/L: PFOB 0.5 mg/L; for MIC of partner antibiotic in the presence of PFOB at 1 mg/L: PFOB 1 mg/L; for MIC of partner antibiotic in the presence of PFOB at 2 mg/L: PFOB 2 mg/L; for MIC of partner antibiotic in the presence of PFOB at 4 mg/L: PFOB 4 mg/L; for MIC of partner antibiotic in the presence of PFOB at 8 mg/L: PFOB 8 mg/L; for MIC of partner antibiotic in the presence of PFOB at 16 mg/L: PFOB 16 mg/L; for MIC of partner antibiotic in the presence of PFOB at 32 mg/L: PFOB 32 mg/L; for MIC: Enterococcus faecalis, ATCC29212, partner antibiotic alone, read-out: MIC (alone) of Partner; for Synergy FIC: FIC index of PFOB + labelled partner, <0.5 = synergy; for MIC of PFOB & Partner: Partner concentration: optimum synergistic combination with PFOB, second figure (partner)
Text: as §1
(§2) In Table 2, results in the checkerboard indicating synergy are hatched, and specific optimum synergistic combinations are boxed.

E.faecalis 78097 (van B) = experiment: Checkerboard microdilution MIC with PFOB, Table 2; assay type: cell-based; conditions: E.faecalis 78097 (van B); for MIC of partner antibiotic in the presence of PFOB at 0.5 mg/L: PFOB 0.5 mg/L; for MIC of partner antibiotic in the presence of PFOB at 1 mg/L: PFOB 1 mg/L; for MIC of partner antibiotic in the presence of PFOB at 2 mg/L: PFOB 2 mg/L; for MIC of partner antibiotic in the presence of PFOB at 4 mg/L: PFOB 4 mg/L; for MIC of partner antibiotic in the presence of PFOB at 8 mg/L: PFOB 8 mg/L; for MIC of partner antibiotic in the presence of PFOB at 16 mg/L: PFOB 16 mg/L; for MIC of partner antibiotic in the presence of PFOB at 32 mg/L: PFOB 32 mg/L; for MIC: Enterococcus faecalis, partner antibiotic alone, read-out: MIC (alone) of Partner
Text: as §1, §2

E. faecalis 5659 (vanA) = experiment: Checkerboard microdilution MIC with PFOB, Table 2; assay type: cell-based; conditions: E. faecalis 5659 (vanA); for MIC of partner antibiotic in the presence of PFOB at 0.5 mg/L: PFOB 0.5 mg/L; for MIC of partner antibiotic in the presence of PFOB at 1 mg/L: PFOB 1 mg/L; for MIC of partner antibiotic in the presence of PFOB at 2 mg/L: PFOB 2 mg/L; for MIC of partner antibiotic in the presence of PFOB at 4 mg/L: PFOB 4 mg/L; for MIC of partner antibiotic in the presence of PFOB at 8 mg/L: PFOB 8 mg/L; for MIC of partner antibiotic in the presence of PFOB at 16 mg/L: PFOB 16 mg/L; for MIC of partner antibiotic in the presence of PFOB at 32 mg/L: PFOB 32 mg/L; for MIC: Enterococcus faecalis, partner antibiotic alone, read-out: MIC (alone) of Partner
Text: as §1, §2

[1] = partner antibiotic alone, read-out: MIC (alone) of Partner

Row | Compound | MIC of partner antibiotic in the presence of PFOB at 0.5 mg/L (E. faecalis ATCC 10541) [µg/mL] | MIC of partner antibiotic in the presence of PFOB at 1 mg/L (E. faecalis ATCC 10541) [µg/mL] | MIC of partner antibiotic in the presence of PFOB at 2 mg/L (E. faecalis ATCC 10541) [µg/mL] | MIC of partner antibiotic in the presence of PFOB at 16 mg/L (E. faecalis ATCC 10541) [µg/mL] | MIC of partner antibiotic in the presence of PFOB at 32 mg/L (E. faecalis ATCC 10541) [µg/mL] | MIC (E. faecalis ATCC 10541; [1]) [µg/mL] | MIC of partner antibiotic in the presence of PFOB at 0.5 mg/L (E. faecalis ATCC 29212) [µg/mL] | MIC of partner antibiotic in the presence of PFOB at 1 mg/L (E. faecalis ATCC 29212) [µg/mL] | MIC of partner antibiotic in the presence of PFOB at 2 mg/L (E. faecalis ATCC 29212) [µg/mL] | MIC of partner antibiotic in the presence of PFOB at 4 mg/L (E. faecalis ATCC 29212) [µg/mL] | MIC of partner antibiotic in the presence of PFOB at 8 mg/L (E. faecalis ATCC 29212) [µg/mL] | MIC of partner antibiotic in the presence of PFOB at 16 mg/L (E. faecalis ATCC 29212) [µg/mL] | MIC of partner antibiotic in the presence of PFOB at 32 mg/L (E. faecalis ATCC 29212) [µg/mL] | MIC (E. faecalis ATCC 29212) [µg/mL] | MIC of partner antibiotic in the presence of PFOB at 0.5 mg/L (E.faecalis 78097 (van B)) [µg/mL] | MIC of partner antibiotic in the presence of PFOB at 1 mg/L (E.faecalis 78097 (van B)) [µg/mL] | MIC of partner antibiotic in the presence of PFOB at 2 mg/L (E.faecalis 78097 (van B)) [µg/mL] | MIC of partner antibiotic in the presence of PFOB at 4 mg/L (E.faecalis 78097 (van B)) [µg/mL] | MIC of partner antibiotic in the presence of PFOB at 8 mg/L (E.faecalis 78097 (van B)) [µg/mL] | MIC of partner antibiotic in the presence of PFOB at 16 mg/L (E.faecalis 78097 (van B)) [µg/mL] | further results
1 | CC1(C)S[C@@H]2[C@H](NC(=O)[C@H](N)c3ccccc3)C(=O)N2[C@H]1C(=O)O [Ampicillin, ampicillin] | 0.25 | 0.25 | 0.25 | 0.06 | <0.03 | 1 | 1 | 1 | 1 | 1 | 1 | 1 | <0.03 | 0.5 | 0.5 | 0.5 | 0.5 | 0.5 | 0.5 | 0.5 | Synergy FIC (E. faecalis ATCC 10541): 0.253; synergy with PFOB (enterococci): less marked, but still significant, synergy; MIC of partner antibiotic in the presence of PFOB at 32 mg/L (E.faecalis 78097 (van B)): 0.5 µg/mL; MIC (E.faecalis 78097 (van B)): 1 µg/mL; MIC of partner antibiotic in the presence of PFOB at 0.5 mg/L (E. faecalis 5659 (vanA)): 2 µg/mL; MIC of partner antibiotic in the presence of PFOB at 1 mg/L (E. faecalis 5659 (vanA)): 2 µg/mL; MIC of partner antibiotic in the presence of PFOB at 2 mg/L (E. faecalis 5659 (vanA)): 2 µg/mL; MIC of partner antibiotic in the presence of PFOB at 4 mg/L (E. faecalis 5659 (vanA)): 2 µg/mL; MIC of partner antibiotic in the presence of PFOB at 8 mg/L (E. faecalis 5659 (vanA)): 1 µg/mL; MIC of partner antibiotic in the presence of PFOB at 16 mg/L (E. faecalis 5659 (vanA)): 1 µg/mL; MIC of partner antibiotic in the presence of PFOB at 32 mg/L (E. faecalis 5659 (vanA)): 0.25 µg/mL; MIC (E. faecalis 5659 (vanA)): 1 µg/mL
2 | CO/N=C(\C(=O)N[C@@H]1C(=O)N2C(C(=O)O)=C(COC(N)=O)CS[C@H]12)c1ccco1 [Cefuroxime, cefuroxime] | >64 | >64 | >64 | <0.06 | <0.06 | > 64 | >64 | >64 | 32 | 8 | 4 | 1 | <0.06 | 32 | 64 | 8 | 8 | 8 | 4 | 1 | Synergy FIC (E. faecalis ATCC 10541): 0.067; MIC of partner antibiotic in the presence of PFOB at 4 mg/L (E. faecalis ATCC 10541): 8 µg/mL; MIC of partner antibiotic in the presence of PFOB at 8 mg/L (E. faecalis ATCC 10541): 0.5 µg/mL; MIC (E. faecalis ATCC 10541; optimum synergistic combination of PFOB with the labelled partner, first figure (PFOB), read-out: MIC of PFOB & Partner: PFOB concentration): 8 µg/mL; MIC (E. faecalis ATCC 10541; optimum synergistic combination with PFOB, second figure (partner), read-out: MIC of PFOB & Partner: Partner concentration): 0.5 µg/mL; Synergy FIC (E. faecalis ATCC 29212): 0.156; MIC of PFOB & Partner: Partner concentration (E. faecalis ATCC 29212): 1 µg/mL; Synergy FIC (E.faecalis 78097 (van B); FIC index of PFOB + labelled partner, <0.5 = synergy): 0.07; MIC of partner antibiotic in the presence of PFOB at 32 mg/L (E.faecalis 78097 (van B)): 0.5 µg/mL; MIC of PFOB & Partner: Partner concentration (E.faecalis 78097 (van B); optimum synergistic combination with PFOB, second figure (partner)): 8 µg/mL; MIC (E.faecalis 78097 (van B)): > 64 µg/mL; MIC of partner antibiotic in the presence of PFOB at 0.5 mg/L (E. faecalis 5659 (vanA)): >64 µg/mL; MIC of partner antibiotic in the presence of PFOB at 1 mg/L (E. faecalis 5659 (vanA)): >64 µg/mL; MIC of partner antibiotic in the presence of PFOB at 2 mg/L (E. faecalis 5659 (vanA)): >64 µg/mL; MIC of partner antibiotic in the presence of PFOB at 4 mg/L (E. faecalis 5659 (vanA)): >64 µg/mL; MIC of partner antibiotic in the presence of PFOB at 8 mg/L (E. faecalis 5659 (vanA)): >64 µg/mL; MIC of partner antibiotic in the presence of PFOB at 16 mg/L (E. faecalis 5659 (vanA)): >64 µg/mL; MIC of partner antibiotic in the presence of PFOB at 32 mg/L (E. faecalis 5659 (vanA)): 0.5 µg/mL; MIC (E. faecalis 5659 (vanA)): > 64 µg/mL
3 | C[C@@H](O)[C@H]1C(=O)N2C(C(=O)O)=C(SCCN=CN)C[C@H]12 [Imipenem, imipenem] | 1 | 1 | 1 | 0.125 | <0.03 | 1 | 0.5 | 0.5 | 0.5 | 0.25 | 0.125 | 0.125 | <0.03 | 0.5 | 1 | 1 | 1 | 1 | 1 | 1 | MIC of partner antibiotic in the presence of PFOB at 4 mg/L (E. faecalis ATCC 10541): 1 µg/mL; MIC of partner antibiotic in the presence of PFOB at 8 mg/L (E. faecalis ATCC 10541): 0.25 µg/mL; Synergy FIC (E. faecalis ATCC 29212): 0.375; MIC of PFOB & Partner: Partner concentration (E. faecalis ATCC 29212): 0.12 µg/mL; MIC of partner antibiotic in the presence of PFOB at 32 mg/L (E.faecalis 78097 (van B)): 1 µg/mL; MIC (E.faecalis 78097 (van B)): 0.5 µg/mL; MIC of partner antibiotic in the presence of PFOB at 0.5 mg/L (E. faecalis 5659 (vanA)): 1 µg/mL; MIC of partner antibiotic in the presence of PFOB at 1 mg/L (E. faecalis 5659 (vanA)): 1 µg/mL; MIC of partner antibiotic in the presence of PFOB at 2 mg/L (E. faecalis 5659 (vanA)): 1 µg/mL; MIC of partner antibiotic in the presence of PFOB at 4 mg/L (E. faecalis 5659 (vanA)): 1 µg/mL; MIC of partner antibiotic in the presence of PFOB at 8 mg/L (E. faecalis 5659 (vanA)): 1 µg/mL; MIC of partner antibiotic in the presence of PFOB at 32 mg/L (E. faecalis 5659 (vanA)): 0.25 µg/mL; MIC (E. faecalis 5659 (vanA)): 0.25 µg/mL
